Tested on: durch CCl₄ induzierte Leberfibrose in Ratten
Assay: CCl₄-induced liver fibrosis in rats, 8-week treatment (liver hydroxyproline, serum procollagen III peptide, serum bilirubin)
Type: in vivo
Details: 8 weeks
Description: Zum Nachweis der effektiven Hemmung der Prolin- und Lysinhydroxylase durch die erfindungsgemäßen Verbindungen wurden die Hydroxyprolin-Konzentrationen in der Leber und die Prokollagen-III-Peptid-Konzentrationen im Serum von • a) unbehandelten Ratten (Kontrolle) • b) Ratten, denen Tetrachlorkohlenstoff verabreicht wurde (CCl₄-Kontrolle) • c) Ratten, denen zunächst CCl₄ und anschließend eine erfindungsgemäße Verbindung verabreicht wurde gemessen (diese Testmethode wird beschrieben von Rouiller, C., experimental toxic injury of the liver; in The Liver, C. Rouiller, Vol. 2, S. 335-476, New York, Academic Press, 1964).
Die Wirkstärke der erfindungsgemäßen Verbindungen wurde als prozentuale Hemmung der Leber-Hydroxyprolin- und Prokollagen-III-Peptidsynthese nach oraler Gabe im Vergleich zu Kontrolltieren, denen nur Tetrachlorkohlenstoff verabreicht wurde (CCl₄-Kontrolle), bestimmt. Die Ergebnisse sind in Tabelle 1 aufgeführt. Tabelle 1

## CC(=O)NNC(=O)c1ccnc(C(=O)NNC(C)=O)c1 [Example 1, Pyridin-2,4-dicarbonsäuredi-(methylcarbonylhydrazid)]
Bilirubin in Serum (total), rats given CCl₄ then compound, daily oral dose 50 mg/kg
  Bilirubin: 3,0 µM
Hydroxyprolin Gehalt in der Leber, rats given CCl₄ then compound, daily oral dose 50 mg/kg
  Hyp: 0,181 µg/ml
Prokollagen III N-peptid im Serum, rats given CCl₄ then compound, daily oral dose 50 mg/kg
  PIIIP: 29 ng/mL
Liver hydroxyproline, absolute increase versus untreated control, 50 mg/kg oral daily
  Hyp Zunahme (absolut) gegen Kontrolle: 0,125 µg/ml
Liver hydroxyproline, 50 mg/kg oral daily
  Hyp prozentuale Abnahme gegen CCl₄-Behandlung: 27%
Mean of the percent decreases of bilirubin, PIIIP and Hyp versus CCl₄ treatment, 50 mg/kg oral daily
  Mittelwert: Gesamtgehalt an Bilirubin, PIIIP und Hyp, % Abweichung: (33 ± 13 %)
Serum procollagen III N-peptide, absolute increase versus untreated control, 50 mg/kg oral daily
  PIIIP Zunahme (absolut) gegen Kontrolle: 18 ng/mL
Serum procollagen III N-peptide, 50 mg/kg oral daily
  PIIIP prozentuale Abnahme gegen CCl₄-Behandlung: 14%
Serum total bilirubin, absolute increase versus untreated control, 50 mg/kg oral daily
  Bilirubin Zunahme (absolut) gegen Kontrolle: 1,1 µM
Serum total bilirubin, 50 mg/kg oral daily
  Bilirubin prozentuale Abnahme gegen CCl₄-Behandlung: 58%
